According to patent US7335359B2, “Glycosylated specificity exchangers” (Tripep AB, priority 2003, dated 2008):

Test system: human Gal-alpha1,3-Gal-specific antibodies
Assay: Glycosylated peptide competitive assay on Gal-BSA coated plates with human sera IB72 (FIG. 4)
Format: binding
Conditions: positive control, mixed with human sera IB72
Procedure: To further evaluate the ability of the glycosylated specificity exchangers to bind to a pathogen, a glycosylated peptide competitive assay was performed using the most reactive human sera (IB72). In brief, Gal-alpha1,3-Gal-labeled bovine serum albumin (Gal-BSA) was coated onto 96-well microplates in sodium carbonate buffer (pH: 9.6) at +4° C. overnight. Dilutions of human sera and dilutions of glyco-peptides (glycosylated HIV-specific ligand/receptor specificity exchangers or Gal-BSA) or non-glycosylated peptides (HIV-specific ligand/receptor specificity exchangers or BSA) were preincubated in phosphate-buffered saline (PBS) containing 1% bovine albumin, 2% goat serum and 0.05% Tween 20 at 37° C. for 1 h. The mixture was then added to the coated plates and incubated at 37° C. for 1 h, then washed 3 times with phosphate-buffered saline (PBS) containing 0.05% Tween 20 (pH: 7.4).
Bound antibodies were indicated with goat anti-human polyvalent Ig, conjugated with alkaline phosphatase. The plates were incubated and washed as described above. Plates were developed with phosphatase substrate at room temperature for 30 min, stopped with 1 M NaOH. Optical density (OD) at 405 nm/650 nm was determined to quantify the inhibition. […] Thus, specificity exchangers that bind Gal-alpha1,3-Gal-specific antibodies had been generated. […]

## Gal-alpha1,3-Gal-labeled bovine serum albumin [Gal-BSA]
  inhibition of human antibody binding to Gal-BSA: 100%
